Where “and” joins values, the source holds several entries; their conditions need not be identical. Identical values can stand only once. Like-named read-outs stand apart in the source and are kept apart here.

Assay [1] has as its system CHO cells stably transformed with nucleic acids encoding RANK:Fc. Description: Production of RANK:Fc with HMBA, caffeine and/or butyric acid, shaker flask, 5 days at 31° C. (Example 8). The format is cell-based, Chinese hamster. The procedure:
Nucleic acids encoding RANK:Fc inserted into a suitable vector (as described in International Application WO 01/36637) were introduced into CHO cells. […] Cells were grown for a total of 5 days in shaker flasks. Thereafter, all medium was harvested. The number of cells present in the culture was determined by staining with trypan blue and counting the cells in a hemocytometer. […] An average number of cells in the culture was calculated by averaging the starting and ending cell numbers. Specific productivity was determined from the total number of micrograms of RANK:Fc produced, an average cell number (calculated as described above), and the number of days of growth. Nucleic acids encoding RANK:Fc inserted into a suitable vector (as described in International Application WO 01/36637) were introduced into CHO cells. […] Cells were grown for a total of 5 days in a shaker flask. Thereafter, all medium was harvested. The number of cells present in the culture, the titer of RANK:Fc per milliliter of harvested medium, and specific productivity were determined as described above in Example 7.

The test system is the same in assay [2]. Description: Production of RANK:Fc with varying amounts of HMBA, shaker flasks, 5 days at 31° C. (Example 7). The format is cell-based, Chinese hamster. As to the method: Nucleic acids encoding RANK:Fc inserted into a suitable vector (as described in International Application WO 01/36637) were introduced into CHO cells. […] Cells were grown for a total of 5 days in shaker flasks. Thereafter, all medium was harvested. The number of cells present in the culture was determined by staining with trypan blue and counting the cells in a hemocytometer. […] An average number of cells in the culture was calculated by averaging the starting and ending cell numbers. Specific productivity was determined from the total number of micrograms of RANK:Fc produced, an average cell number (calculated as described above), and the number of days of growth.

For assay [3], the system named is CHO cells stably transformed with nucleic acids encoding a type II IL-1 receptor. Description: Production of type II IL-1 receptor with HMBA in a bioreactor (Example 9). The note with it: 2 mM, added at shift to 31° C. after 2 days at 37° C., 12 more days. The assay is classed as cell-based, Chinese hamster. As to the method: About 500 thousand cells from a stably transformed line were inoculated into a one liter of serum-free medium in a bioreactor. Cells were grown for two days at 37° C. Thereafter, cells were shifted to 31° C., either without HMBA or in the presence of 2 mM HMBA, and grown for 12 more days. Thereafter, all medium was harvested. […] Data from this experiment are shown in Table 6 as a percentage of the average of the protein titers obtained from the two samples without HMBA rounded to the nearest whole number.

In assay [4] the test system is CHO cells stably transformed with nucleic acids encoding an antibody against a murine IL-4 receptor.
The subject of another assay is cell line #9. Description: Induction effects of xanthine derivatives in cell line #9, shake flasks, 6 days at 31° C. (Example 5). The note with it: for protein titer compared with the no inducer control culture: concentrations of Table 3 (0.1-1 mM xanthines; 0.5 mM butyrate). The assay is classed as cell-based, Chinese hamster. The procedure:
To dissolve 3-isobutyl-1-methylxanthine (IBX), it was solubilized in water heated to almost the boiling point, and quickly added to the flasks before it precipitated. […] The induction phase of the cell culture was carried out for 6 days at 31° C., and samples were removed for analysis at 3 day and 6 day timepoints.

Assay [5] has as its system CHO cell production line genetically engineered to express TNFR:Fc (cell line #5). Description: Induction of TNFR:Fc expression, shaker flasks, 5 days at 31° C. (Example 1). The format is cell-based, Chinese hamster. As to the method: CHO cells were grown in spinner flasks at 37° C. using serum-free growth medium containing methotrexate. […] The cells, at initial cell densities of 2×10^6 cells/ml in 20 ml, were placed in 125 ml plastic Erlenmeyer flasks with plug seal caps and placed on shaker platforms in incubators set to the appropriate temperatures. Cell viability and number were monitored by haemocytometer counting using trypan blue dye. Recombinant polypeptide titers were assessed by ELISA-based assays. […] A flask containing no inducing compound was also included. The shaker flasks were incubated in this induction phase for 5 days at 31° C. in incubators without carbon dioxide control.

In the case of `CCCC(=O)O` [Butyric acid, butyric acid], in assay [1] (0.5 mM), the “Specific productivity (μg/10^6 cells/day)” value amounted to 31.6 μg/10^6 cells/day and the “Titer of RANK: Fc” value worked out at 476 µg/mL.

In the case of `CC(=O)NCCCCCCNC(C)=O` [HMBA, hexamethylene bisacetamide], the “Specific productivity (μg/10^6 cells/day)” value was found to be 19.1 μg/10^6 cells/day in assay [2] (0.1 mM), 19.5 μg/10^6 cells/day in assay [2] (0.5 mM), 23.9 μg/10^6 cells/day in assay [2] (2.0 mM) and 22.8 μg/10^6 cells/day in assay [1] (2 mM). The “Titer of RANK: Fc” value in assay [2] (0.1 mM) is 243 µg/mL; in assay [2] (0.5 mM), 347 µg/mL; in assay [2] (2.0 mM) it was 444 µg/mL; in assay [1] (2 mM), 410 µg/mL. Besides, the “Relative Titer of type II IL-1 Receptor (percent of average of samples without HMBA)” value in assay [3] was 120% and 125%. Further, in assay [4] (2 mM), the “production of the antibody compared with no inducer” value was “enhanced production of the antibody”. Besides, in assay [4] (2 mM, 31° C.), the “extent of enhancement of antibody production compared with sodium butyrate (0.5 mM)” value is “to a greater extent than did sodium butyrate”.

As for `CC(C)Cn1c(=O)n(C)c(=O)c2[nH]cnc21` [IBX, 3-isobutyl-1-methylxanthine], in the assay on cell line #9 (0.5 mM), the “Titer (μg/ml) Day 3” value is 150 µg/mL, the “Titer (μg/ml) Day 6” value stood at 420 µg/mL and the “production compared with caffeine” value was “even better than caffeine”.

`Cn1c(=O)c2[nH]cnc2n(C)c1=O` [aminophylline, theophylline compound with 1,2-ethylenediamine (2:1) dihydrate]: the “Titer (μg/ml) Day 3” value in the assay with cell line #9 (0.1 mM) was 110 µg/mL; in the assay on cell line #9 (0.5 mM), 120 µg/mL; with cell line #9 (1 mM), 100 µg/mL. In addition, the results for the “Titer (μg/ml) Day 6” value in the assay on cell line #9 (0.1 mM), in the assay with cell line #9 (0.5 mM) and in the assay on cell line #9 (1 mM) were 260 µg/mL, 250 µg/mL and 200 µg/mL, respectively. Besides, the “protein titer compared with the no inducer control culture” value in the assay on cell line #9 is recorded as “did not induce protein titers above that seen in the no inducer control culture”.

For `CCCC(=O)[O-].[Na+]` [butyrate, sodium butyrate], in assay [5] (0.2 mM), the “rate (in μg protein/10^6 cells/day) relative to control cultures” value is on record as “about 1.07 times the rate of control cultures” and the “total protein (in μg/ml) relative to control culture” value is “about 1.11 times the total protein produc”. In the assay with cell line #9 (0.5 mM), the “Titer (μg/ml) Day 3” value was determined as 100 µg/mL and the “Titer (μg/ml) Day 6” value was found to be 220 µg/mL. In addition, the “protein titer compared with the no inducer control culture” value in the assay with cell line #9 is recorded as “does not induce increased protein titer over that seen in a culture with no inducer”. In addition, in assay [4] (0.5 mM), the “production of the antibody compared with no inducer” value is reported as “enhanced production of the antibody”.

For `Cn1c(=O)c2c(ncn2C)n(C)c1=O` [caffeine, 1,3,7-trimethylxanthine], the “rate of production compared with 0.2 mM butyrate culture” value in assay [5] (0.5 mM) is listed as “slightly higher rates of production”. Besides, the “rate of productivity per cell compared with no inducing agent” value in assay [5] (2 mM) is on record as “higher”. Further, in assay [1] (1 mM), the “Specific productivity (μg/10^6 cells/day)” value worked out at 23.6 μg/10^6 cells/day and the “Titer of RANK: Fc” value was found to be 362 µg/mL.

With `Cn1cnc2c1c(=O)[nH]c(=O)n2C` [theobromine, 3,7-dimethylxanthine], the figures for the “Titer (μg/ml) Day 3” value in the assay on cell line #9 (0.1 mM), in the assay on cell line #9 (0.5 mM) and with cell line #9 (1 mM) were 90 µg/mL, 100 µg/mL and 100 µg/mL, respectively. Besides, the “Titer (μg/ml) Day 6” value in the assay with cell line #9 (0.1 mM) was determined as 270 µg/mL; with cell line #9 (0.5 mM) it was 260 µg/mL; in the assay with cell line #9 (1 mM), 260 µg/mL. The “protein titer compared with the no inducer control culture” value with cell line #9 is listed as “did not induce protein titers above that seen in the no inducer control culture”.

For the origin of these results see patent publication US7452695B2, “Methods for increasing polypeptide production” (Immunex Corporation, priority 2002, dated 2008).
